Experimental findings from ChEMBL document CHEMBL1811876 (J Med Chem, 2011) are described below.

What all share (type): functional
For one test, the system named is A549. The test can be described thus: Anticancer activity against human A549 cells after 72 hrs by sulforhodamine B assay. The following applies: A549, 72 h. Background: Sulforhodamine B stains cellular protein and so reports cell mass.
Another test relates to KB. Description: Anticancer activity against human KB cells after 72 hrs by sulforhodamine B assay.
The next test deals with DU-145. The test can be described thus: Anticancer activity against human DU145 cells after 72 hrs by sulforhodamine B assay. The following applies: DU-145, 72 h.
Test [1] in a line: Anticancer activity against human KBVIN cells after 72 hrs by sulforhodamine B assay.
Another test deals with HCT-8. The test can be described thus: Anticancer activity against human HCT8 cells after 72 hrs by sulforhodamine B assay. The following applies: HCT-8, 72 h.

Consider `COc1ccc2c3c(c4cc(OC)c(OC)cc4c2c1)C[C@@H]1CCN(CCO)CN1C3`, for which the GI50 (as a rule, the concentration at which growth is held to half of that of the control) is 2.48 µM with A549, 2.22 µM in the test with KB, 1.46 µM in the test with DU-145 and more than 20 µM in test [1].
In the same order, the values of `COc1ccc2c3c(c4cc(OC)c(OC)cc4c2c1)C[C@@H]1CCN(N(C)C)CN1C3` are 5.2 µM, 2.84 µM, 3 µM and 5.3 µM.
For the molecule `COc1ccc2c3c(c4cc(OC)c(OC)cc4c2c1)C[C@H]1CN(C2CC2)CN1C3`, the GI50 amounted to 1.8 µM with A549, 1.85 µM in the test on HCT-8, 2.71 µM in the test with KB and 3.7 µM in the test with DU-145.
In turn, `COc1ccc2c3c(c4cc(OC)c(OC)cc4c2c1)CC1CCOCCN1C3` (single isomer, unassigned) showed a GI50 in the test with KB of 0.068 µM. That is a double-digit nanomolar value.
Regarding `COc1ccc2c3c(c4cc(OC)c(OC)cc4c2c1)C[C@H]1CN(CCO)CN1C3`, the GI50 with A549 was 4.41 µM; with HCT-8 it was 10.8 µM; in the test with KB it was 7.83 µM; in the test with DU-145 it was 6.36 µM.
Consider `COc1ccc2c3c(c4cc(OC)c(OC)cc4c2c1)C[C@@H]1CCOCN1C3`, for which the GI50 is 1.37 µM in the test with A549, 1.26 µM in the test with HCT-8, 1.1 µM in the test on KB and 1.29 µM with DU-145.
Consider `COc1ccc2c3c(c4cc(OC)c(OC)cc4c2c1)C[C@H]1CN(S(C)(=O)=O)CCN1C3`, for which the GI50 in the test on A549 was 14.5 µM; in the test on HCT-8, 17.8 µM; in the test on KB, 17.5 µM; in the test on DU-145, 17 µM.
In the case of `COc1ccc2c3c(c4cc(OC)c(OC)cc4c2c1)C[C@H]1CCN(Cc2ccccc2)CN1C3`, the GI50 with A549, with HCT-8, in the test on KB and with DU-145 was more than 20 µM in each case.
For the molecule `COc1ccc2c3c(c4cc(OC)c(OC)cc4c2c1)C[C@H]1CN(C(=O)c2ccccc2)CCN1C3`, the GI50 was 15 µM in the test on A549, 18.1 µM in the test with HCT-8, more than 20 µM with KB and 15.7 µM in the test with DU-145.
For the molecule `COc1ccc2c3c(c4cc(OC)c(OC)cc4c2c1)C[C@H]1CCOCN1C3`, the GI50 with A549 turned out to be 1.79 µM; in the test with HCT-8 it was 1.45 µM; in the test with KB, 1.66 µM; with DU-145, 1.82 µM.
On to `COc1ccc2c3c(c4cc(OC)c(OC)cc4c2c1)C[C@@H]1CN(CC(C)C)CCN1C3`, for which the concentration for 50% growth inhibition (GI50) is 12.9 µM with A549, 11.2 µM with KB, 12.2 µM with DU-145 and 9.96 µM in test [1].
Consider `COc1ccc2c3c(c4cc(OC)c(OC)cc4c2c1)C[C@H]1CN(C)CCN1C3`, for which the GI50 amounted to 9.73 µM in the test with A549, 6.45 µM in the test on HCT-8, 5.3 µM in the test with KB and 7.13 µM with DU-145.
On to `COc1ccc2c3c(c4cc(OC)c(OC)cc4c2c1)C[C@H]1CN(C2CC2)CCN1C3`, for which the GI50 in the test on A549 is more than 20 µM; in the test on HCT-8, 13 µM; in the test with KB it was more than 20 µM; in the test on DU-145 it was 17.9 µM.
Take `COc1ccc2c3c(c4cc(OC)c(OC)cc4c2c1)C[C@H]1CCN(CCO)CN1C3`: the GI50 with A549 is 5.68 µM; with HCT-8 it was 10.7 µM; in the test on KB, 1.59 µM; in the test with DU-145 it was 1.99 µM.
On the same counts, the results for `COc1ccc2c3c(c4cc(OC)c(OC)cc4c2c1)C[C@H]1CCN(CC(C)C)CN1C3` are 1.52 µM, 1.36 µM, 5.06 µM and 2.3 µM.
As to `COc1ccc2c3c(c4cc(OC)c(OC)cc4c2c1)C[C@@H]1CN(N(C)C)CN1C3`, the concentration for 50% growth inhibition (GI50) in the test on A549 turned out to be 4.15 µM; in the test with KB, 2.38 µM; in the test on DU-145 it was 6.01 µM; in test [1] it was 11 µM.
As to `COc1ccc2c3c(c4cc(OC)c(OC)cc4c2c1)C[C@H]1CN(CCc2ccccc2)CN1C3`, the GI50 was determined as 6.62 µM with A549, 7.47 µM in the test with HCT-8, 10 µM in the test on KB and 10.2 µM with DU-145.
As for `COc1ccc2c3c(c4cc(OC)c(OC)cc4c2c1)C[C@H]1CN(c2ccccc2)CN1C3`, the GI50 in the test on A549, in the test on HCT-8, in the test on KB and with DU-145 was more than 20 µM throughout.
For the molecule `COc1ccc2c3c(c4cc(OC)c(OC)cc4c2c1)C[C@H]1CN(CC(C)C)CN1C3`, the GI50 with A549 stood at 2 µM; in the test with HCT-8 it was 1.82 µM; in the test with KB, 4.4 µM; in the test with DU-145 it was 6.6 µM.
For the molecule `COc1ccc2c3c(c4cc(OC)c(OC)cc4c2c1)C[C@@H]1CN(C(=O)c2ccccc2)CCN1C3`, the GI50 was 16.4 µM in the test with A549, 12.1 µM with KB, 11.9 µM in the test with DU-145 and 7.64 µM in test [1].
With `COc1ccc2c3c(c4cc(OC)c(OC)cc4c2c1)C[C@H]1CN(CC2CC2)CCN1C3`, the GI50 turned out to be 0.79 µM in the test on A549, 0.25 µM in the test with HCT-8, 6.57 µM in the test with KB and 2.94 µM in the test on DU-145.
Take `COc1ccc2c3c(c4cc(OC)c(OC)cc4c2c1)C[C@H]1CN(Cc2ccccc2)CCN1C3`: the GI50 in the test on A549 is more than 20 µM; with KB it was 16.9 µM; in the test on DU-145, more than 20 µM; in test [1] it was 15.2 µM.
With `COc1ccc2c3c(c4cc(OC)c(OC)cc4c2c1)C[C@@H]1CN(C(=O)N(C)C)CCN1C3`, the GI50 in the test with A549 was determined as 14.1 µM; with KB it was 12.3 µM; with DU-145, 13.1 µM; in test [1], 11.4 µM.
With `COC(=O)N1CCN2Cc3c(c4cc(OC)c(OC)cc4c4cc(OC)ccc34)C[C@H]2C1`, the GI50 is 10.9 µM in the test on A549, 12.1 µM with HCT-8, 11.3 µM in the test on KB and 12.2 µM in the test on DU-145.
Consider `COc1ccc2c3c(c4cc(OC)c(OC)cc4c2c1)C[C@H]1CNCCN1C3`, for which the GI50 with A549 is 1.73 µM; in the test with HCT-8, 1.62 µM; with KB, 1.79 µM; in the test with DU-145, 2.08 µM.
`COc1ccc2c3c(c4cc(OC)c(OC)cc4c2c1)C[C@@H]1CCN(CC2CC2)CN1C3`: the GI50 was determined as 1.12 µM in the test on A549, 2.1 µM in the test with KB, 1.2 µM with DU-145 and 5.68 µM in test [1].
For `COc1ccc2c3c(c4cc(OC)c(OC)cc4c2c1)C[C@H]1CN(CCO)CCN1C3`, the GI50 with A549 was determined as 14.1 µM; in the test with HCT-8, 7.41 µM; in the test on KB, 8.62 µM; in the test with DU-145, 12.6 µM.
Turning to `COc1ccc2c3c(c4cc(OC)c(OC)cc4c2c1)C[C@@H]1COCCN1C3`, the GI50 with A549 is 14 µM; with HCT-8, 3.45 µM; in the test with KB, 6.68 µM; in the test on DU-145, 7.05 µM.
`COc1ccc2c3c(c4cc(OC)c(OC)cc4c2c1)C[C@@H]1CN(Cc2ccccc2)CN1C3`: the GI50 in the test on A549 came out at 2.68 µM; in the test with KB, 3.41 µM; in the test on DU-145, 4.62 µM; in test [1] it was 1.87 µM.
In the case of `COc1ccc2c3c(c4cc(OC)c(OC)cc4c2c1)C[C@H]1CN(C(C)=O)CCN1C3`, the GI50 in the test on A549 came out at 11.7 µM; in the test with HCT-8, 13.8 µM; with KB, 15.5 µM; in the test on DU-145 it was 11.9 µM.
With `COc1ccc2c3c(c4cc(OC)c(OC)cc4c2c1)C[C@H]1CN(P(=O)(OC)OC)CCN1C3`, the GI50 in the test with A549 worked out at 12.2 µM; with KB, 8.09 µM; with DU-145 it was 14.7 µM; in test [1], 10.4 µM.
Take `COc1ccc2c3c(c4cc(OC)c(OC)cc4c2c1)C[C@H]1CCN(c2ccccc2)CN1C3`: the GI50 in the test with A549, in the test with HCT-8, in the test with KB and in the test with DU-145 was more than 20 µM in each case.
As to `COc1ccc2c3c(c4cc(OC)c(OC)cc4c2c1)C[C@H]1CCN(C2CC2)CN1C3`, the GI50 in the test on A549 stood at 4.3 µM; in the test with HCT-8, 5.73 µM; in the test with KB it was 11.5 µM; with DU-145 it was 14.3 µM.
In the case of `COC(=O)CN1CCN2Cc3c(c4cc(OC)c(OC)cc4c4cc(OC)ccc34)C[C@H]2C1`, the GI50 in the test with A549 was 14.7 µM; in the test on HCT-8, 14 µM; in the test with KB, 14.7 µM; with DU-145 it was more than 20 µM.
In the case of `COc1ccc2c3c(c4cc(OC)c(OC)cc4c2c1)C[C@H]1CN(C)CN1C3`, the GI50 with A549 is 0.66 µM; with HCT-8, 1 µM; with KB, 1.72 µM; in the test with DU-145, 2.03 µM.
With `COc1ccc2c3c(c4cc(OC)c(OC)cc4c2c1)C[C@@H]1CN(C)CN1C3`, the GI50 worked out at 0.66 µM with A549, 0.66 µM with HCT-8, 0.79 µM in the test on KB and 1 µM in the test on DU-145.
Turning to `CCCN1C[C@@H]2Cc3c(c4ccc(OC)cc4c4cc(OC)c(OC)cc34)CN2C1`, the GI50 with A549 came out at 3.94 µM; with HCT-8 it was 2.71 µM; in the test with KB, 6.64 µM; in the test on DU-145 it was 7.38 µM.
Take `COc1ccc2c3c(c4cc(OC)c(OC)cc4c2c1)C[C@H]1CCN(N(C)C)CN1C3`: the GI50 in the test with A549 came out at 1.78 µM; in the test with HCT-8 it was 2.37 µM; in the test with KB, 3.08 µM; with DU-145 it was 2.97 µM.
Consider `CCN1CCN2Cc3c(c4cc(OC)c(OC)cc4c4cc(OC)ccc34)C[C@H]2C1`, for which the GI50 with A549 came out at 7.13 µM; in the test with HCT-8 it was 9.45 µM; in the test with KB, 8.24 µM; in the test on DU-145, 10.5 µM.
Regarding `COc1ccc2c3c(c4cc(OC)c(OC)cc4c2c1)C[C@H]1CCCCN1C3` [CRYPTOPLEURINE], the GI50 in the test with A549 worked out at 0.00138 µM; with HCT-8, 0.00109 µM; in the test on KB, 0.00151 µM; in the test on DU-145, 0.00159 µM.
On to `COc1ccc2c3c(c4cc(OC)c(OC)cc4c2c1)C[C@H]1CN(N(C)C)CN1C3`, for which the GI50 in the test with A549 is 1.67 µM; in the test with HCT-8, 2.01 µM; in the test with KB, 2.31 µM; with DU-145, 2.26 µM.
In the case of `COc1ccc2c3c(c4cc(OC)c(OC)cc4c2c1)C[C@H]1CN(Cc2ccccc2)CN1C3`, the GI50 in the test on A549 was determined as 5.3 µM; in the test with HCT-8 it was 3.63 µM; in the test on KB it was 5.7 µM; in the test with DU-145 it was 4.95 µM.
